From ChEMBL document CHEMBL1156519, “Roles for two aminopeptidases in vacuolar hemoglobin catabolism in Plasmodium falciparum” (J Biol Chem, 2007) come the findings set out here.

Activity calls are given as the source filed them. No cut-off for these calls is given here. Peptide text beside a SMILES is read from it. * marks the point of attachment. CH2F = FC*

The test system of assay [1] is Plasmodium falciparum. Kind of assay: Antimalarial activity as inhibition of Plasmodium falciparum 3D7 replication in medium + isoleucine after 65 hrs. The assay is classed as functional, organism-based. Particulars: 3D7, 65 h.
Assay [2] relates to Plasmodium falciparum. The assay is described as follows: Antimalarial activity as DNA content of ring stage Plasmodium falciparum 3D7 in medium with all amino acids by flow cytometry. The assay is classed as functional, organism-based.
The subject of assay [3] is Plasmodium falciparum. The assay is described as follows: Inhibition of aminopeptidase N in Plasmodium falciparum food vacuole extract.
Assay [4] has as its system Plasmodium falciparum. The assay is described as follows: Antimalarial activity as inhibition of Plasmodium falciparum 3D7 replication in medium with all amino acids after 65 hrs. Format: functional, organism-based. Particulars: 3D7, 65 h.
The subject of assay [5] is Plasmodium falciparum. The assay is described as follows: Antimalarial activity as DNA content of ring stage Plasmodium falciparum 3D7 in medium + isoleucine by flow cytometry. Format: functional, organism-based.
Assay [6] can be described thus: Inhibition of DPAP1 assessed as blocking of release of beta-naphthylamine from Ala-Pro-Ala-betaNA substrate at 1 uM.
Assay [7] can be described thus: Inhibition of DPAP1 assessed as blocking of release of beta-naphthylamine from Ala-Pro-Ala-betaNA substrate at 1 uM in presence of recombinant Plasmodium falciparum aminopeptidase P.

For `CC(C)C[C@H](NC(=O)[C@@H](O)[C@H](N)Cc1ccccc1)C(=O)O` [UBENIMEX], the EC50 amounted to 900 nM with Plasmodium falciparum [1] and 1800 nM in the assay with Plasmodium falciparum [4]. Moreover, the result in the assay on Plasmodium falciparum [2], with Plasmodium falciparum [3] and with Plasmodium falciparum [5] was Active. Further, the outcome in assay [6] and in assay [7] was inactive.

Take `CC(C)C[C@H](NC(=O)[C@H]1O[C@@H]1C(=O)O)C(=O)NCCCCN=C(N)N`: the outcome in assay [6] and in assay [7] was inactive.

In the case of `CC(C)CC(=O)N[C@H](C(=O)N[C@H](C(=O)N[C@@H](CC(C)C)[C@@H](O)CC(=O)N[C@@H](C)C(=O)N[C@@H](CC(C)C)[C@@H](O)CC(=O)O)C(C)C)C(C)C`, the outcome in assay [6] was inactive.

`N=C(N)NCCC[C@H](NC(=O)[C@@H]1CCCN1)C(=O)CF` (H-Pro-Arg-CH2F): the result in assay [6] and in assay [7] was Active.
